Data on four compounds can be found in article PMC11858597, “Synthesis, Anticancer Screening, and In Silico Evaluations of Thieno[2,3-c]pyridine Derivatives as Hsp90 Inhibitors” (Pharmaceuticals, 2025).

Data set [1] has as its system HSC3 cells. As to the kind of experiment: Apoptosis evaluation by Annexin V/PI staining, HSC3. It counts as cell-based. The settings on record: HSC3, IC50 concentration, 72 h. As to the method:
(§1) To further examine the processes responsible for reduced cell viability, apoptosis was evaluated by Annexin V/Propidium Iodide (PI) double staining, as outlined in the experimental section by considering the best active compound 6i. […] Annexin V/PI staining detects very little increase in Annexin-positive cells; 6i-treated cells were stained with Annexin V and PI for fluorescence-activated cell sorting (FACS) analysis. The results establish that 6i may promote cell death by processes distinct from apoptosis, deserving further investigation into alternative pathways, such as autophagy or ferroptosis.
(§2) Floating dead cells and the attached cells were collected, washed with PBS, and resuspended in 100 μL of Annexin V solution for 30 min according to the manufacturer’s instruction (Annexin V-FITC Kit, Miltenyi Biotec, Gaithersburg, MD, USA, Catalog Number 130-092-052). After Annexin V staining, cells were stained shortly with PI to exclude the dead cells. The quantitative analysis for apoptosis was performed by FACS Accuri C6 Plus (BD BIOSCIENCES, Franklin Lakes, NJ, USA) flow cytometer. About 10,000 events were analyzed using the FlowJo software (version 10).

In a further data set the test system is RKO. Description: MTT assay, RKO colorectal cancer cells. It counts as cell-based. Particulars: 72 h; for inhibition at 1 µM / inhibition at 10 µM / inhibition at 100 µM: read-out: % cell growth inhibition. From the text: (§3) An MTT assay was used to evaluate the final compounds’ anticancer activity against MCF7 and T47D (breast cancer cells), HSC3 (head and neck cancer cells), and RKO (colorectal cancer cells) cell lines, using cisplatin as a reference standard. Table 1 presents the percentage growth inhibition of all compounds against the various cancer cell lines.
(§4) The cancer cell lines MCF7 and T47D (breast cancer cells), HSC3 (head and neck cancer cells), and RKO (colorectal cancer cells) were kindly provided by Prof. Stephan Feller, Institute of Molecular Medicine, Martin Luther University, Halle, Germany. The human fibroblast (PDL) cell line was obtained as a kind gift from Prof. Khaled Al-Qaoud (Yarmouk University, Irbid, Jordan). All cell lines were cultured in Dulbecco’s Modified Eagle’s Medium (DMEM) supplemented with 10% fetal bovine serum, 100 µg/mL streptomycin, 100 U/mL penicillin, and 1% non-essential amino acid at 37 °C with 5% CO2 in a humidified CO2 incubator. The cell cultures were grown to confluence, and the medium was changed two times weekly.
(§5) The MTT (3-[4,5-dimethylthiazol-2-yl]-2,5-diphenyl tetrazolium bromide) assay was used to investigate cell viability and to calculate the half-maximal inhibitory concentration (IC50) values of the compounds 6(a–k) including standard reference cisplatin. Furthermore, […] stock solutions of the compounds were prepared in DMSO where all compounds were completely soluble. Cells were seeded in 96-well tissue culture plates at a density of 6,000 cells/well for MCF7, T47D, and PDL cells and at a density of 4000 cells/well for RKO and HSC3 cells. After 24 h of seeding, investigated cells were treated with three concentrations (1, 10, and 100 µm) of the compounds for 72 h. At the end of the treatment time, the supernatant medium was aspirated, and 50 µL of fresh DMEM containing MTT (0.5 mg/mL) was added to each well. Cells were then incubated at 37 °C for 2–4 h. After that, the medium was completely removed, and 50 µL of DMSO was added to each well to dissolve the precipitated formazan crystals formed by viable cells. Cell viability, represented by the absorbance of the formazan solution, was measured at 570 nm using the Synergy HTX Multimode Reader (BioTek, Vermont, USA), and cell viability was determined as described in the literature. For each concentration, the relative cell viability was calculated as follows: relative cell viability = (mean treatment absorbance/mean control absorbance) × 100%. Assays were performed in triplicate on three independent experiments. […] IC50 values were then calculated using the four-parameter logistic function in the SigmaPlot software (version 12.5) and presented as the mean ± SD from three independent experiments.

For a further data set, the system named is T47D. Description: MTT assay, T47D breast cancer cells. It counts as cell-based. The settings on record: 72 h; for inhibition at 1 µM / inhibition at 10 µM / inhibition at 100 µM: read-out: % cell growth inhibition.
Excerpt: as §3, §4, §5
On the technique in general: Tetrazolium assays rely on reduction of a dye to a coloured formazan, in cell work by metabolically active cells.

The subject of another data set is PDL. Description: MTT assay, normal fibroblast cell line (PDL). It counts as cell-based, human. Particulars: 72 h; for IC50: PDL normal fibroblasts.
Excerpt: To understand the selectivity of compounds, a normal fibroblast cell line (human periodontal ligament-PDL) is also included in this IC50 determination.
as §4, §5

Data set [2] relates to HSC3 cells. Description: Cell cycle analysis (PI staining), HSC3. It counts as cell-based. Particulars: HSC3, IC50 concentration, 72 h. On the procedure:
(§6) In a subsequent set of experiments, we aimed to evaluate the effect of compound 6i on the cell cycle. Treatment with 6i led to a significant accumulation of HSC3 and RKO cells in the G2 phase (HSC3: control, 34.6% ± 3.2% vs. 6i, 46.4% ± 3.6%; RKO: control, 34.5% ± 2.9% vs. 6i, 64.2% ± 3.5%).
(§7) The supernatant with the floating dead cells and the attached cells from each well were collected and fixed in cold ethanol at −20 °C for 30 min [69]. Cells were stained with a Propidium iodide (PI) working solution (1 µg/mL PI and 10 µg/mL RNase A in PBS) for 30 min at 37 °C in the dark and then washed with PBS. Cell fluorescence was measured using the FACS Accuri C6 Plus (BD BIOSCIENCES, Franklin Lakes, NJ, USA) flow cytometer. Histograms of cell counts versus […] fluorescence were generated, and the distribution of cells throughout several cell cycle stages was assessed based on the mean fluorescence intensity values. About 10,000 events were examined utilizing FlowJo software (version 10).

Data set [3] concerns RKO cells. Description: Cell cycle analysis (PI staining), RKO. It counts as cell-based. The settings on record: IC50 concentration, 72 h. On the procedure:
as §6, §7

Data set [4] concerns RKO cells. Description: Apoptosis evaluation by Annexin V/PI staining, RKO. The settings on record: IC50 concentration, 72 h. It counts as cell-based. As to the method: as §1, §2
The next data set deals with MCF7. Description: MTT assay, MCF7 breast cancer cells. It counts as cell-based. Particulars: for IC50: MCF7, 72 h; for inhibition at 1 µM / inhibition at 10 µM / inhibition at 100 µM / % cell growth inhibition: 72 h; for inhibition at 1 µM / inhibition at 10 µM / inhibition at 100 µM: read-out: % cell growth inhibition.
Excerpt: as §3, §4, §5

Another data set concerns HSC3. Description: MTT assay, HSC3 head and neck cancer cells. Particulars: for % cell growth inhibition / inhibition at 1 µM / inhibition at 10 µM / inhibition at 100 µM: 72 h; for inhibition at 1 µM / inhibition at 10 µM / inhibition at 100 µM: HSC-3, 72 h, read-out: % cell growth inhibition; for IC50: HSC3, 72 h. It counts as cell-based.
Excerpt: as §3, §4, §5

The next data set has as its system Hsp90. On the set-up: method as in PMID 20371713. Particulars: against breast cancer; read-out: Hsp90 inhibition IC50; cited from earlier work.

Broadly, the inhibition is the percentage by which the read-out fell short of the control. For orientation: IC50 means the point on the concentration scale where inhibition reaches its midpoint. In the case of `CCOC(=O)c1c(NC(=O)CN2CCSCC2)sc2c1CCN(C(=O)OCC)C2` [6i, Diethyl 2-(2-thiomorpholinoacetamido)-4,7-dihydrothieno[2,3-c]pyridine-3,6(5H)-dicarboxylate], the “proportion of apoptotic cells with positive Annexin V staining” value in the data set on HSC3 cells [1] and in the data set on RKO cells [4] was “significantly lower” each time. Also, the inhibition at 1 µM stood at 5.17% with RKO (Homo sapiens, 1 µM); 1.9% with T47D (Homo sapiens, 1 µM); 1.53% with MCF7 (Homo sapiens, MCF7, 1 µM); 14.8% in the data set with HSC3 (Homo sapiens, HSC3, 1 µM). Also, the inhibition at 10 µM in the data set on RKO (Homo sapiens, 10 µM) is 55.4%; in the data set with T47D (Homo sapiens, 10 µM) it was 35.3%; with MCF7 (Homo sapiens, MCF7, 10 µM) it was 39.1%; in the data set on HSC3 (Homo sapiens, HSC3, 10 µM), 62.3%. In addition, the inhibition at 100 µM in the data set with RKO (Homo sapiens, 100 µM) worked out at 92.5%; in the data set with T47D (Homo sapiens, 100 µM) it was 83.9%; with MCF7 (Homo sapiens, MCF7, 100 µM), 95.3%; in the data set on HSC3 (Homo sapiens, HSC3, 100 µM), 94%. In addition, the IC50 was 12.4 ± 1.9 µM in the data set with RKO (Homo sapiens); 11.7 ± 1.1 µM with T47D (Homo sapiens); over 100 µM in the data set on PDL (Homo sapiens, Fibroblast); 16.4 ± 0.2 µM in the data set with MCF7 (Homo sapiens); 10.8 ± 3.9 µM in the data set on HSC3 (Homo sapiens, HSC-3). The “toxicity to normal fibroblast cell lines, PDL” value in the data set with PDL was “no toxicity”. The “proportion of cells in the G1 and S phases” value with HSC3 cells [2] (vs control) and in the data set with RKO cells [3] (vs control) was “markedly reduced” each time. Also, the “cells in the G2 phase” value with HSC3 cells [2] (control 34.6% ± 3.2%) is recorded as 46.4% ± 3.6%; in the data set on RKO cells [3] (control 34.5% ± 2.9%) it was 64.2% ± 3.5%. Also, the “% cell growth inhibition” value was “weak inhibition” with MCF7 (MCF7, 1 µM) and 94.04% with HSC3 (HSC3, 100 µM, 100 µM).

Turning to `CCOC(=O)c1c(NC(=O)CN2CCCCC2)sc2c1CCN(C(=O)OCC)C2` [6a], the inhibition at 1 µM stood at 5.71% in the data set on RKO (Homo sapiens, 1 µM); 9.31% in the data set on T47D (Homo sapiens, 1 µM); 2.96% with MCF7 (Homo sapiens, MCF7, 1 µM); 4.26% in the data set on HSC3 (Homo sapiens, HSC3, 1 µM). For the same compound, the inhibition at 10 µM in the data set with RKO (Homo sapiens, 10 µM) is 53%; with T47D (Homo sapiens, 10 µM) it was 38.6%; in the data set with MCF7 (Homo sapiens, MCF7, 10 µM), 39.5%; with HSC3 (Homo sapiens, HSC3, 10 µM) it was 59.8%. For the same compound, the inhibition at 100 µM with RKO (Homo sapiens, 100 µM) came out at 93.5%; with T47D (Homo sapiens, 100 µM), 88.1%; in the data set on MCF7 (Homo sapiens, MCF7, 100 µM), 91.6%; in the data set on HSC3 (Homo sapiens, HSC3, 100 µM) it was 92.6%. Moreover, the half-inhibitory concentration (IC50) is 24.4 ± 7.2 µM in the data set with RKO (Homo sapiens); 97.2 ± 4.4 µM in the data set with T47D (Homo sapiens); over 100 µM in the data set on PDL (Homo sapiens, Fibroblast); 73.7 ± 4.3 µM in the data set with MCF7 (Homo sapiens); 14.5 ± 4.3 µM with HSC3 (Homo sapiens, HSC-3). In addition, the “toxicity to normal fibroblast cell lines, PDL” value in the data set on PDL is “no toxicity”. Also, in the data set with MCF7 (MCF7, 1 µM), the “% cell growth inhibition” value is on record as “weak inhibition”.

Consider `CCNC(=O)c1cc2c(-c3cc(OCCN4CCCC4)c(Cl)cc3Cl)nc(N)nc2s1` [NVP-BEP800], for which, in the data set with Hsp90, the IC50 was 0.058 µM.

Consider `N.N.[Cl][Pt][Cl]` [Cisplatin, reference compound], for which the “% cell growth inhibition” value in the data set with RKO (1 µM) was determined as 46.06%; in the data set with RKO (10 µM), 92.77%; with RKO (100 µM), 95.04%; with T47D (1 µM), 29.09%; in the data set on T47D (10 µM), 89.65%; in the data set with T47D (100 µM), 98.20%. Also, the “% cell growth inhibition” value was 11.23% with MCF7 (MCF7, 1 µM); 57.32% in the data set with MCF7 (MCF7, 10 µM); 97.41% in the data set with MCF7 (MCF7, 100 µM); 29.33% in the data set with HSC3 (HSC3, 1 µM); 84.74% with HSC3 (HSC3, 10 µM); 97.87% with HSC3 (HSC3, 100 µM). The IC50 with RKO was found to be 1.7 ± 0.4 µM; in the data set with T47D, 2.6 ± 0.6 µM; in the data set with PDL it was 15.5 ± 2.1 µM; in the data set on MCF7, 5.8 ± 0.9 µM; with HSC3, 2.7 ± 0.2 µM.
